How the values were obtained:
barnyard grass [1] = experiment: Test Example 4: herbicidal effect by soil treatment (Table 19, symbol H); type: in vivo, barnyard grass (Echinochloa crus-galli); conditions: amount of applied herbicide 320 g/ha
Summary of the method: (§1)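 Soil-surface application: an emulsion agent diluted with water to the predetermined dose is sprayed uniformly over seeds lying under roughly 1.5 cm of sterilized diluvial soil. Boxes stay in a greenhouse at 25° C. to 30° C. Three weeks later, each species is graded on previously defined criteria.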

barnyard grass [2] = experiment: Test Example 5: herbicidal effect by foliage application, plastic box (Table 20, symbol H); type: in vivo, barnyard grass (Echinochloa crus-galli); conditions: foliage application, 320 g/ha, three weeks after application
Summary of the method: (§2)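 Sow seeds spot-wise in sterilized diluvial soil; cover with ~1.5 cm soil. Grow 14 days in greenhouse, 25° C. to 30° C. Spray foliage with emulsion diluted to predetermined amount. Rate effect after 3 weeks.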

southern crabgrass [3] = experiment: Test Example 5: herbicidal effect by foliage application, plastic box (Table 20, symbol F); type: in vivo, southern crabgrass (Digitaria ciliaris); conditions: foliage application, 320 g/ha, three weeks after application
Summary of the method: as §2

green foxtail [4] = experiment: Test Example 4: herbicidal effect by soil treatment (Table 19, symbol G); type: in vivo, green foxtail (Setaria viridis); conditions: amount of applied herbicide 320 g/ha
Summary of the method: as §1

velvetleaf [5] = experiment: Test Example 5: herbicidal effect by foliage application, plastic box (Table 20, symbol M); type: in vivo, velvetleaf (Abutilon theophrasti); conditions: foliage application, 320 g/ha, three weeks after application
Summary of the method: as §2

Japanese bulrush [6] = experiment: Test Example 1: herbicidal activity, application before weed generation under submerged conditions (Table 16, symbol B); type: in vivo, Japanese bulrush (Schoenoplectus juncoides); conditions: amount of applied herbicide 320 g/ha
Summary of the method: (§3)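 Emulsion formulation, water-diluted to set dose, was put onto the flooded surface (4 cm depth, alluvial soil) the same day weeds were sown and 2.5-leaf rice transplanted. After 3 weeks at 25-30 °C under glass, each species was rated 0 (≤5% kill) to 5 (≥90% kill).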

Chinese sprangletop = experiment: Test Example 3: herbicidal effect by foliage application, Wagner pot (Table 18, symbol D); type: in vivo, chinese sprangletop (Leptochloa chinensis); conditions: for herbicidal effect on D: Chinese sprangletop: amount of applied herbicide 320 g/ha
Summary of the method: (§4)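 Plants were sown in alluvial soil held under 0.1–0.5 cm standing water and grown 14 days in a greenhouse at 25–30 °C. An emulsifiable formulation, water-diluted to the set dose, was then sprayed onto the foliage, and effects were scored three weeks later using previously defined criteria.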

barnyard grass [7] = experiment: Test Example 3: herbicidal effect by foliage application, Wagner pot (Table 18, symbol H); type: in vivo, barnyard grass (Echinochloa crus-galli); conditions: for herbicidal effect on H: barnyard grass: amount of applied herbicide 320 g/ha
Summary of the method: as §4

oval-leafed pondweed [8] = experiment: Test Example 1: herbicidal activity, application before weed generation under submerged conditions (Table 16, symbol C); type: in vivo, oval-leafed pondweed (Monochoria vaginalis); conditions: amount of applied herbicide 320 g/ha
Summary of the method: as §3

rice flat sedge = experiment: Test Example 3: herbicidal effect by foliage application, Wagner pot (Table 18, symbol E); type: in vivo, rice flat sedge (Cyperus iria)
Summary of the method: as §4

lambsquarters [9] = experiment: Test Example 4: herbicidal effect by soil treatment (Table 19, symbol O); type: in vivo, lambsquarters (Chenopodium album); conditions: amount of applied herbicide 320 g/ha
Summary of the method: as §1

redroot pigweed [10] = experiment: Test Example 5: herbicidal effect by foliage application, plastic box (Table 20, symbol N); type: in vivo, redroot pigweed (Amaranthus retroflexus); conditions: foliage application, 320 g/ha, three weeks after application
Summary of the method: as §2

velvetleaf [11] = experiment: Test Example 4: herbicidal effect by soil treatment (Table 19, symbol M); type: in vivo, velvetleaf (Abutilon theophrasti); conditions: amount of applied herbicide 320 g/ha
Summary of the method: as §1

late watergrass [12] = experiment: Test Example 2: herbicidal activity, application during weed generation under submerged conditions (Table 17, symbol A); type: in vivo, late watergrass (Echinochloa oryzicola); conditions: AAH 320 g/ha; application during weed generation, submerged conditions
Summary of the method: (§5)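 Effect on each weed is rated three weeks post-treatment, using the same scoring criteria as the preceding test. Plants grow from mixed-sown seed in flooded alluvial soil (4 cm water) at 25° C. to 30° C., and are treated at one to two leaves with diluted emulsion dropped onto the water.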

green foxtail [13] = experiment: Test Example 5: herbicidal effect by foliage application, plastic box (Table 20, symbol G); type: in vivo, green foxtail (Setaria viridis); conditions: foliage application, 320 g/ha, three weeks after application
Summary of the method: as §2

redroot pigweed [14] = experiment: Test Example 4: herbicidal effect by soil treatment (Table 19, symbol N); type: in vivo, redroot pigweed (Amaranthus retroflexus); conditions: amount of applied herbicide 320 g/ha
Summary of the method: as §1

oval-leafed pondweed [15] = experiment: Test Example 2: herbicidal activity, application during weed generation under submerged conditions (Table 17, symbol C); type: in vivo, oval-leafed pondweed (Monochoria vaginalis); conditions: AAH 320 g/ha; application during weed generation, submerged conditions
Summary of the method: as §5

lambsquarters [16] = experiment: Test Example 5: herbicidal effect by foliage application, plastic box (Table 20, symbol O); type: in vivo, lambsquarters (Chenopodium album); conditions: foliage application, 320 g/ha, three weeks after application
Summary of the method: as §2

Japanese bulrush [17] = experiment: Test Example 2: herbicidal activity, application during weed generation under submerged conditions (Table 17, symbol B); type: in vivo, Japanese bulrush (Schoenoplectus juncoides); conditions: AAH 320 g/ha; application during weed generation, submerged conditions
Summary of the method: as §5

late watergrass [18] = experiment: Test Example 1: herbicidal activity, application before weed generation under submerged conditions (Table 16, symbol A); type: in vivo, late watergrass (Echinochloa oryzicola); conditions: amount of applied herbicide 320 g/ha
Summary of the method: as §3

southern crabgrass [19] = experiment: Test Example 4: herbicidal effect by soil treatment (Table 19, symbol F); type: in vivo, southern crabgrass (Digitaria ciliaris); conditions: amount of applied herbicide 320 g/ha
Summary of the method: as §1

wild oat = experiment: Test Example 5: herbicidal effect by foliage application, plastic box (Table 20, symbol I); type: in vivo, wild oat (Avena fatua); conditions: foliage application, 320 g/ha, three weeks after application
Summary of the method: as §2

windgrass = experiment: Test Example 5: herbicidal effect by foliage application, plastic box (Table 20, symbol L); type: in vivo, windgrass (Apera spica-venti); conditions: foliage application, 320 g/ha, three weeks after application
Summary of the method: as §2

blackgrass = experiment: Test Example 5: herbicidal effect by foliage application, plastic box (Table 20, symbol J); type: in vivo, blackgrass (Alopecurus myosuroides); conditions: foliage application, 320 g/ha, three weeks after application
Summary of the method: as §2

persian speedwell = experiment: Test Example 5: herbicidal effect by foliage application, plastic box (Table 20, symbol R); type: in vivo, Persian speedwell (Veronica persica); conditions: foliage application, 320 g/ha, three weeks after application
Summary of the method: as §2

Italian ryegrass = experiment: Test Example 5: herbicidal effect by foliage application, plastic box (Table 20, symbol K); type: in vivo, Italian ryegrass (Lolium multiflorum); conditions: foliage application, 320 g/ha, three weeks after application
Summary of the method: as §2

| Compound | herbicidal effect, H: barnyard grass (barnyard grass [1]) | H: barnyard grass, herbicidal effect grade (barnyard grass [2]) | F: southern crabgrass, herbicidal effect grade (southern crabgrass [3]) | herbicidal effect, G: green foxtail (green foxtail [4]) | M: velvetleaf, herbicidal effect grade (velvetleaf [5]) | Herbicidal effect, B: Japanese bulrush (Japanese bulrush [6]) | herbicidal effect on D: Chinese sprangletop (Chinese sprangletop) | herbicidal effect on H: barnyard grass (barnyard grass [7]) | Herbicidal effect, C: oval-leafed pondweed (oval-leafed pondweed [8]) | herbicidal effect, O: lambsquarters (lambsquarters [9]) | N: redroot pigweed, herbicidal effect grade (redroot pigweed [10]) | herbicidal effect, M: velvetleaf (velvetleaf [11]) | herbicidal effect rating, A: late watergrass (late watergrass [12]) | G: green foxtail, herbicidal effect grade (green foxtail [13]) | herbicidal effect, N: redroot pigweed (redroot pigweed [14]) | herbicidal effect rating, C: oval-leafed pondweed (oval-leafed pondweed [15]) | O: lambsquarters, herbicidal effect grade (lambsquarters [16]) | herbicidal effect rating, B: Japanese bulrush (Japanese bulrush [17]) | Herbicidal effect, A: late watergrass (late watergrass [18]) | herbicidal effect, F: southern crabgrass (southern crabgrass [19]) | also measured |
| --- | --- | --- | --- | --- | --- | --- | --- | --- | --- | --- | --- | --- | --- | --- | --- | --- | --- | --- | --- | --- | --- |
| CC(COc1ccc(-c2sc3ccc(F)cc3c2-c2c(O)c(C)nn(C)c2=O)cc1)=NO [2-453] | 5 (Herbicidal rate of 90% or more (almost completely withered)) | 5 (Herbicidal rate of 90% or more (almost completely withered)) | 5 (Herbicidal rate of 90% or more (almost completely withered)) | 5 (Herbicidal rate of 90% or more (almost completely withered)) | 5 (Herbicidal rate of 90% or more (almost completely withered)) | 3 (Herbicidal rate of 40% or more and less than 70%) | 3 (Herbicidal rate of 40% or more and less than 70%) | 5 (Herbicidal rate of 90% or more (almost completely withered)) | 3 (Herbicidal rate of 40% or more and less than 70%) | 5 (Herbicidal rate of 90% or more (almost completely withered)) | 5 (Herbicidal rate of 90% or more (almost completely withered)) | 5 (Herbicidal rate of 90% or more (almost completely withered)) | 3 (Herbicidal rate of 40% or more and less than 70%) | 5 (Herbicidal rate of 90% or more (almost completely withered)) | 5 (Herbicidal rate of 90% or more (almost completely withered)) | 4 (Herbicidal rate of 70% or more and less than 90%) | 5 (Herbicidal rate of 90% or more (almost completely withered)) | 4 (Herbicidal rate of 70% or more and less than 90%) | 3 (Herbicidal rate of 40% or more and less than 70%) | 5 (Herbicidal rate of 90% or more (almost completely withered)) | herbicidal effect on E: rice flat sedge (rice flat sedge; amount of applied herbicide 320 g/ha): 2 (Herbicidal rate of 20% or more and less than 40%) |
| COCCOCc1ccc(-c2sc3ccc(F)cc3c2-c2c(O)c(C)nn(C)c2=O)cc1 [2-445] | 4 (Herbicidal rate of 70% or more and less than 90%) | 5 (Herbicidal rate of 90% or more (almost completely withered)) | 5 (Herbicidal rate of 90% or more (almost completely withered)) | 5 (Herbicidal rate of 90% or more (almost completely withered)) | 5 (Herbicidal rate of 90% or more (almost completely withered)) | 0 (Herbicidal rate of 5% or less (almost no effect)) | – | – | 0 (Herbicidal rate of 5% or less (almost no effect)) | 4 (Herbicidal rate of 70% or more and less than 90%) | 5 (Herbicidal rate of 90% or more (almost completely withered)) | 3 (Herbicidal rate of 40% or more and less than 70%) | 3 (Herbicidal rate of 40% or more and less than 70%) | 5 (Herbicidal rate of 90% or more (almost completely withered)) | 5 (Herbicidal rate of 90% or more (almost completely withered)) | 0 (Herbicidal rate of 5% or less (almost no effect)) | 5 (Herbicidal rate of 90% or more (almost completely withered)) | 0 (Herbicidal rate of 5% or less (almost no effect)) | 3 (Herbicidal rate of 40% or more and less than 70%) | 5 (Herbicidal rate of 90% or more (almost completely withered)) | – |
| CCCC(=O)Oc1c(C)nn(C)c(=O)c1-c1c(-c2ccc(OC)cc2)sc2cc(C)c(C)cc12 [5-093] | – | – | – | – | – | 0 (Herbicidal rate of 5% or less (almost no effect)) | – | – | 0 (Herbicidal rate of 5% or less (almost no effect)) | – | – | – | 2 (Herbicidal rate of 20% or more and less than 40%) | – | – | 0 (Herbicidal rate of 5% or less (almost no effect)) | – | 0 (Herbicidal rate of 5% or less (almost no effect)) | 2 (Herbicidal rate of 20% or more and less than 40%) | – | herbicidal effect on barnyard grass (H) (barnyard grass [2]): 0 (Herbicidal rate of 5% or less (almost no effect)); herbicidal effect on wild oat (I) (wild oat): 0 (Herbicidal rate of 5% or less (almost no effect)); herbicidal effect on southern crabgrass (F) (southern crabgrass [3]): 0 (Herbicidal rate of 5% or less (almost no effect)); herbicidal effect on velvetleaf (M) (velvetleaf [5]): 1 (Herbicidal rate of 5% or more and less than 20%); herbicidal effect on Chinese sprangletop (D) (Chinese sprangletop; 320 g/ha): 2 (Herbicidal rate of 20% or more and less than 40%); herbicidal effect on barnyard grass (H) (barnyard grass [7]; 320 g/ha): 1 (Herbicidal rate of 5% or more and less than 20%); herbicidal effect on rice flat sedge (E) (rice flat sedge; 320 g/ha): 2 (Herbicidal rate of 20% or more and less than 40%); herbicidal effect on windgrass (L) (windgrass): 0 (Herbicidal rate of 5% or less (almost no effect)); herbicidal effect on blackgrass (J) (blackgrass): 0 (Herbicidal rate of 5% or less (almost no effect)); herbicidal effect on persian speedwell (R) (persian speedwell): 0 (Herbicidal rate of 5% or less (almost no effect)); herbicidal effect on green foxtail (G) (green foxtail [13]): 0 (Herbicidal rate of 5% or less (almost no effect)); herbicidal effect on lambsquarters (O) (lambsquarters [16]): 3 (Herbicidal rate of 40% or more and less than 70%); herbicidal effect on Italian ryegrass (K) (Italian ryegrass): 0 (Herbicidal rate of 5% or less (almost no effect)) |
| COCCOc1ccc(-c2sc3ccc(F)cc3c2-c2c(O)cnn(C)c2=O)cc1 [2-441] | 0 (Herbicidal rate of 5% or less (almost no effect)) | 5 (Herbicidal rate of 90% or more (almost completely withered)) | 4 (Herbicidal rate of 70% or more and less than 90%) | 0 (Herbicidal rate of 5% or less (almost no effect)) | 5 (Herbicidal rate of 90% or more (almost completely withered)) | 3 (Herbicidal rate of 40% or more and less than 70%) | 0 (Herbicidal rate of 5% or less (almost no effect)) | 5 (Herbicidal rate of 90% or more (almost completely withered)) | 3 (Herbicidal rate of 40% or more and less than 70%) | 4 (Herbicidal rate of 70% or more and less than 90%) | 5 (Herbicidal rate of 90% or more (almost completely withered)) | 1 (Herbicidal rate of 5% or more and less than 20%) | 3 (Herbicidal rate of 40% or more and less than 70%) | 5 (Herbicidal rate of 90% or more (almost completely withered)) | 4 (Herbicidal rate of 70% or more and less than 90%) | 0 (Herbicidal rate of 5% or less (almost no effect)) | 5 (Herbicidal rate of 90% or more (almost completely withered)) | 0 (Herbicidal rate of 5% or less (almost no effect)) | 3 (Herbicidal rate of 40% or more and less than 70%) | 0 (Herbicidal rate of 5% or less (almost no effect)) | – |

— patent US20230085307A1, “PYRIDAZINONE COMPOUND AND HERBICIDE” (NISSAN CHEMICAL CORPORATION, priority 2019, published 2023)
